US10022380B2, “Treatment of solid tumours” (Vivolux AB, priority 2012, dated 2018)

Experiments:
[1] = system: HCT116 MCS; experiment: Pimonidazole staining of sectioned spheroids (indirect measure of respiration/hypoxia); assay type: cell-based
Procedure: (§1) HCT116 colon carcinoma cells were maintained in McCoy's 5A modified medium/10% fetal calf serum at 37° C. in 5% CO2. […] A cell suspension containing 10,000 cells (200 μl) was added to each well of poly-HEMA coated 96 well plates. The wells were then overfilled by adding an additional 170 μl media to acquire a convex surface curvature. Plasticine spacers (3 mm) were placed in the corners of each plate to prevent the lids from touching the media. The plates were then inverted in order to allow the cells to sediment to the liquid/air interface and incubated in gentle shaking. After 24 hrs incubation the plates were returned to normal. First excess media was removed by aspiration and then plasticine spacers. The plates were incubated for 4 days prior to drug treatment.
MCS produced by the hanging drop method in 96 well plates were fixed in paraformaldehyde, dehydrated, embedded in paraffin and sectioned. Each sample contained 32 MCS (MCS from each 96 well plate were pooled into 3 groups). The sections were deparaffinized with xylene, rehydrated and microwaved, and then incubated overnight with the monoclonal primary antibodies diluted in 1% (weight/volume) bovine serum albumin and visualized by standard avidin-biotin-peroxidase complex technique (Vector Laboratories, Burlingame, Calif., USA). Counterstaining was performed with Mayer's haematoxylin. […]

[2] = system: monolayer HCT116 cells; experiment: Proliferation / viability of monolayer HCT116 cells
Procedure: HCT116 MCS were treated for 6 hours with 6 μM CB21, followed by changing to drug-free medium and further incubation. MCS were sectioned and stained for active caspase-3. […] Cells were incubated for 30 minutes with EdU, fixed and analyzed by ArrayScan. […] Cells were seeded at 7,000 or 70,000 per well in 96 well plates in the presence or absence of CB21.
Cells were fixed and stained for LC3 after drug treatment at the times indicated. […] Cells were treated with 6 μM CB21 and/or 10 μM bafilomycin A and cells were photographed at the times Indicated. […] HCT116 cells were treated with 6 μM CB21 and/or 10 μM chloroquine. Cell proliferation was monitored by calculation of culture confluency.
HCT116 colon carcinoma cells were maintained in McCoy's 5A modified medium/10% fetal calf serum at 37° C. in 5% CO2. MCS were prepared using a modification of our previously described method (12). A cell suspension containing 10,000 cells (200 μl) was added to each well of poly-HEMA coated 96 well plates. The wells were then overfilled by adding an additional 170 μl media to acquire a convex surface curvature. […] Caspase cleaved keratin-18 (K18-Asp396) was determined using 25 mL medium/extract using the M30 CytoDeath ELISA assay (a variant of the M30-Apoptosense® ELISA (13) developed for in-vitro use (Peviva AB, Bromma, Sweden)). […]

[3] = system: LC3-I and LC3-II; experiment: LC3-I / LC3-II induction in HCT116 (western blot, LC3 staining); assay type: cell-based; conditions: for Induction of LC3-I and LC3-II: HCT116 cells
Procedure: FIG. 4B: Staining of CB21-treated cells with an antibody to LC3. […] Cells were treated for 6 hours (6 μM), and then incubated further. Protein were extracted and subjected to western blot analysis. […] FIGS. 4F-4H: Morphology of peripheral and core cells visualized by electron microscopy. MCS were treated for 6 hours with 6 μM C21 and incubated further in drug-free medium for the times indicated and sectioned.
MCSs contain mostly non-proliferating cells. […] The mechanism(s) of action was studied in more detail. […] LC3-II (the PE-conjugated form of LC3) is a protein marker regarded to be most reliably associated with autophagosomes (19).

[4] = system: HCT116 MCS; assay type: cell-based
Procedure: Cell viability was determined using the acid phosphatase test.
as §1
Viability measurements were performed by the acid phosphatase (APH) method described by Friedrich et al. (14). Background activity was subtracted.

[5] = system: mTOR substrate 4EBP1; experiment: Phosphorylation of mTOR substrate 4EBP1 and of AKT (western blot); conditions: HCT116 cells
Procedure: Cell extract proteins were resolved by Tris-Acetate PAGE gels (Invitrogen, Carlsbad, Calif.) and transferred onto a polyvinylidene difluoride (PVDF) membrane. The membranes were incubated overnight with antibodies, washed and incubated with HRP-conjugated anti-rabbit Ig (Amersham Biosciences, Little Chalfont, UK) for 1 h. Peroxidase activity was developed by SuperSignal West Pico (Pierce Biotechnology, Rockford, Ill.) according to manufacturer's instructions.

N#CC(C#N)=NNc1cccc(Cl)c1 [CCCP, carbonylcyanide-3-chlorophenylhydrazone]
Pimonidazole positive area (%) ([1]; 10 μM, 6 h): 79.9%

CO/C1=C\C(C)=C\[C@@H](C)[C@@H](O)[C@@H](C)C/C(C)=C/C=C/[C@H](OC)[C@@H]([C@@H](C)[C@@H](O)[C@H](C)[C@@]2(O)C[C@@H](O)[C@H](C)[C@@H](C(C)C)O2)OC1=O [bafilomycin A]
time at which cytotoxicity was observed ([2]; HCT116, 10 μM bafilomycin A, 6 μM CB21): ~72 h
appearance of large cytoplasmic LC3-II positive vesicles ([3]; HCT116 cells treated with CB21, 10 μM Bafilomycin A): suppresses the appearance of large cytoplasmic LC3-II positive vesicles

Cn1c(=O)n(-c2ccc(C(C)(C)C#N)cc2)c2c3cc(-c4cnc5ccccc5c4)ccc3ncc21 [NVP-BEZ235]
Induction of LC3-I and LC3-II ([3]; 6 h): weak induction
Induction of LC3-I and LC3-II ([3]; 24 h): no induction observed
viability of the cells in the core of the MCS [4]: did not affect the viability
4EBP1 phosphorylation [5]: decrease

CCN(CC)CCCC(C)Nc1ccnc2cc(Cl)ccc12 (stereo not drawn) [CQ, Chloroquine]
proliferation / cell death of monolayer HCT116 cells ([2]; 10 μM chloroquine, 6 μM CB21, culture confluency): no effect

CO[C@H]1C[C@@H]2CC[C@@H](C)[C@@](O)(O2)C(=O)C(=O)N2CCCC[C@H]2C(=O)O[C@H]([C@H](C)C[C@@H]2CC[C@@H](O)[C@H](OC)C2)CC(=O)[C@H](C)/C=C(\C)[C@@H](O)[C@@H](OC)C(=O)[C@H](C)C[C@H](C)/C=C/C=C/C=C/1C [Rapamycin]
Pimonidazole positive area (%) ([1]; 10 nM, 5 h): 42.2%
